Data as given in patent publication US20250041279A1, “THERAPEUTIC MEDICINE FOR HEART DISEASE OR SKELETAL MUSCLE DISEASE” (SHIONOGI & CO., LTD., priority 2021, published 2025).
Values belong to the compound of their own block, whether it stands above or below them.

Tests used:
[1] = Metabolic stability test, rat; type: in vitro ADME; conditions: 30 minutes
[2] = Metabolic stability test, human liver microsomes; type: in vitro ADME; conditions: 37° C., 30 minutes, NADPH
Method: Commercially available pooled human liver microsomes were reacted with the compound of the present invention for a given time. A residual rate was calculated by comparison between the reacted sample and the unreacted sample to evaluate a degree at which the compound of the present invention is metabolized in the liver.
The compound was reacted at 37° C. for 0 minutes or 30 minutes in the presence of 1 mmol/L NADPH in 0.2 mL of a buffer (50 mmol/L Tris-HCl pH 7.4, 150 mmol/L potassium chloride, and 10 mmol/L magnesium chloride) containing 0.5 mg protein/mL of the human liver microsomes (oxidative reaction). After the reaction, 50 μL of the reaction solution was added to 100 μL of a solution of methanol/acetonitrile=1/1 (v/v) and mixed, and the mixture was centrifuged at 3000 rpm for 15 minutes. The compound of the present invention in the centrifuged supernatant was quantified by LC/MS/MS or solid-phase extraction (SPE)/MS. The amount of the compound of the present invention remained after the reaction was calculated with the amount of the compound at 0 minutes of the reaction defined as 100%.

Atgl knockout mice = test: Long-chain fatty acid metabolizing ability in Atgl knockout mouse myocardium (BMIPP SPECT/CT wash out rate); type: in vivo
Method: Atgl (adipose-triglyceride lipase) knockout mice are known as non clinical models of TGCV. Atgl knockout mice (KO mice) deficient in the Atgl gene were each produced by a known method.
The compound of the present invention was suspended in a 0.5% HPMC aqueous solution so that the dose of the same was 30 or 45 mg/kg/10 mL, and orally administered to 6 to 7-week-old male Atgl knockout mice on the day before and the day when the long chain fatty acid metabolizing ability was measured. On the day of measurement of long-chain fatty acid metabolizing ability, 14.6 MBq/mouse of iodine-123-8 methyl iodophenyl-pen-tadecanoic acid (BMIPP) was administered via the tail vein. At 1 hour and 4 hours after administration, the mice were imaged by single-photon emission computed tomography (SPECT)/CT under anesthesia, and the radioactivity of the administered BMIPP in the myocardium was measured. The metabolism of long-chain fatty acids in the myocardium was calculated as a wash out rate by the following formula.

C57BL/6JJcl mice = test: Plasma triglyceride concentration in mice fed ultra-high fat, choline-deficient, methionine-lowered diet; type: in vivo; conditions: for Plasma triglyceride concentration: bid, mean ± standard error; for plasma triglyceride concentration versus vehicle-administered group: mice fed ultra-high fat, choline-deficient, methionine-lowered diet, repeated oral b.i.d.
Method: Six-week-old male C57BL/6JJcl mice were fed an ultra-high fat, choline-deficient, methionine-lowered diet (60 kcal % fat content, using lard, choline-deficient, methionine-lowered (0.1%)), and at the same time, the compound of the present invention was suspended in a vehicle (0.5% methylcellulose aqueous solution) so as to have a dose of 3 to 45 mg/kg/10 mL, and orally repeatedly administered (b.i.d.) for 8 weeks. Blood was collected from the tail vein during the repeated administration period, and biochemical parameters in plasma were measured.

recombinant human ACC2 = recombinant human ACC2 (Homo sapiens (Human), UniProt O00763); test: Measurement of inhibitory activity of human ACC2 (MALDI-TOF MS); type: biochemical; conditions: read-out: IC50 hACC2
Sequence of recombinant human ACC2 (O00763 27-2458): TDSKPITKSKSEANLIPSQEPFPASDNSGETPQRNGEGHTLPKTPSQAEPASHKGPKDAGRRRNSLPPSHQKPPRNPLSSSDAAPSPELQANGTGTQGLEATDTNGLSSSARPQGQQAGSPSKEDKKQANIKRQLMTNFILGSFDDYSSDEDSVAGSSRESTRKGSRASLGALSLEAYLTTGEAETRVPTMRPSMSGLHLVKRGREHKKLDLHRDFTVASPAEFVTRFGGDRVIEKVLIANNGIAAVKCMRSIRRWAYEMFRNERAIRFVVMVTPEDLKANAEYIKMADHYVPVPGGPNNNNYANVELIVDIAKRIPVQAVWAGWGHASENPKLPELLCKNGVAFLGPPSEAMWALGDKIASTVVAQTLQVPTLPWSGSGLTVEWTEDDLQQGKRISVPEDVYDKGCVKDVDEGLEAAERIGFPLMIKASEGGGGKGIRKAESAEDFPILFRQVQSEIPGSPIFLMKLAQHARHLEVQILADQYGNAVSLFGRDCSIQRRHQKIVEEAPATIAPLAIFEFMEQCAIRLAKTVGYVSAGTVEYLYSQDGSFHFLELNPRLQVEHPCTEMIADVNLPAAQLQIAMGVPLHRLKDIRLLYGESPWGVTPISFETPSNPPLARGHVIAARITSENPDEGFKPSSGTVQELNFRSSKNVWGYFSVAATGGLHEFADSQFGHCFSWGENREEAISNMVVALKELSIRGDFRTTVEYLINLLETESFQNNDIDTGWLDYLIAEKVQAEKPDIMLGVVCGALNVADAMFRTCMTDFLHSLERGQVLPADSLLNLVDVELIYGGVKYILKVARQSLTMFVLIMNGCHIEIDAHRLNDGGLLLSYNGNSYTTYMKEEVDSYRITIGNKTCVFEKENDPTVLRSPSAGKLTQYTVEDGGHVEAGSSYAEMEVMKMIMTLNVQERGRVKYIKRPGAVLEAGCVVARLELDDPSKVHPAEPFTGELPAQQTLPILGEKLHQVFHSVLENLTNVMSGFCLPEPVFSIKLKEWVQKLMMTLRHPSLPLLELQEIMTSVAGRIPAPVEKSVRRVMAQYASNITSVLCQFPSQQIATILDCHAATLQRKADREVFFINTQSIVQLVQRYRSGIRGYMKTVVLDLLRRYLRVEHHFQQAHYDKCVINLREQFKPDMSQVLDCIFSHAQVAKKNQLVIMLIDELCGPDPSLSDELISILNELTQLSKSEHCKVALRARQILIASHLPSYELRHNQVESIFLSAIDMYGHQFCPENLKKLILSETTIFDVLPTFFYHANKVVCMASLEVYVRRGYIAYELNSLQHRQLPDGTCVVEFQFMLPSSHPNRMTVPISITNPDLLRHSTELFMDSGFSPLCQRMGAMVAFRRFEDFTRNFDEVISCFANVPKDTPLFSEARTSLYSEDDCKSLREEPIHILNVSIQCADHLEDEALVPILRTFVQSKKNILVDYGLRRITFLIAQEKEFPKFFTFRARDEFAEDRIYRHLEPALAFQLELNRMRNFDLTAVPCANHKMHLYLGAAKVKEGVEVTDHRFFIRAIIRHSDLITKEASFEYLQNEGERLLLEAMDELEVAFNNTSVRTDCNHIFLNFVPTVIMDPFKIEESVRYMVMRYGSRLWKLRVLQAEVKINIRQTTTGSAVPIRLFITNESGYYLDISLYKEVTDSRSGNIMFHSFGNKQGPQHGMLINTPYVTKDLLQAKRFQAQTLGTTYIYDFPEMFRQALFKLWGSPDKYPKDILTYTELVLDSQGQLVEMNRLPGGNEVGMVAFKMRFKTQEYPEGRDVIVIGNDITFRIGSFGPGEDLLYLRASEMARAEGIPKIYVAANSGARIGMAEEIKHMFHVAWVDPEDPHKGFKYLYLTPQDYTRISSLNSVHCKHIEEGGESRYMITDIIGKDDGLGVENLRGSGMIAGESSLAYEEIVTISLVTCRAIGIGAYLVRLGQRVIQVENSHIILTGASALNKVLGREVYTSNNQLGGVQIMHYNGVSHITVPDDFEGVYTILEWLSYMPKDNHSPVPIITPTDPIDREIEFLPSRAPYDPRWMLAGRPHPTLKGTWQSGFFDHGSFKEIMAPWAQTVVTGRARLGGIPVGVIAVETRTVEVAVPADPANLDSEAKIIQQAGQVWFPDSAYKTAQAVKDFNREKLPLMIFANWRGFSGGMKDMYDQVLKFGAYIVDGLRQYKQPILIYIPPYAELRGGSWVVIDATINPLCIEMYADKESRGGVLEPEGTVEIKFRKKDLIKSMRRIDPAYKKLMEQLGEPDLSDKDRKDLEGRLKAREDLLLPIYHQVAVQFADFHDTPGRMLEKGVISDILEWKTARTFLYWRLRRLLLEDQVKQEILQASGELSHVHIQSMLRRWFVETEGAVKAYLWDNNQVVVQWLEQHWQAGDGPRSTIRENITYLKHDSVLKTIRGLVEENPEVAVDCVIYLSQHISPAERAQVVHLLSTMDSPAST
Excerpt: A cDNA encoding human ACC2 protein (27 amino acid residues to 2458 amino acid residues from the N-terminus) was cloned from a human kidney cDNA library (Clontech Laboratories, Inc.), a His-tag sequence was introduced at the 5′ end, and then inserted into pFastBac1 (Invitrogen). A recombinant baculovirus was produced in accordance with the protocol for a Bac-to-Bac baculovirus expression system (Invitrogen), and Sf-9 cells were infected therewith to express human ACC2 protein. The recovered cells were crushed, filtered through a filter, and then subjected to Ni affinity chromatography and anion exchange chromatography. Fractions containing human ACC2 protein were collected to obtain recombinant human ACC2.
The recombinant human ACC1 and the recombinant human ACC2 obtained from the above Preparation Examples were preincubated in an assay buffer (50 mM HEPES-KOH (pH 7.4), 10 mM magnesium chloride, 6 to 10 mM potassium citrate, 4 mM glutathione reduced form, and 1.5 mg/ml bovine serum albumin) for 1 hour. […] Deprotonated ions of the substrate acetyl-CoA (AcCoA) and the reaction product malonyl-CoA (MalCoA) were detected, and the intensity of each signal was used to calculate a conversion rate to malonyl-CoA or succinyl-CoA, i.e., intensity of [MalCoA-H]—/(intensity of [MalCoA-H]-+intensity of [AcCoA.H].). […] The potassium citrate concentration in the assay buffer, the potassium bicarbonate concentration in the substrate solution, and the incubation time were adjusted within the above concentrations or reaction times for each lot of the enzyme to be used.

Remaining amount of compound, Rat [1]: 85.5%
Remaining amount of compound, Human [2]: 83.3%
Plasma triglyceride concentration (C57BL/6JJcl mice; 3 mg/kg, 2 weeks): 32.9 ± 1.3 mg/dL
Plasma triglyceride concentration (C57BL/6JJcl mice; 3 mg/kg, 4 weeks): 22.4 ± 2.1 mg/dL
Plasma triglyceride concentration (C57BL/6JJcl mice; 3 mg/kg, 7 weeks): 27.2 ± 1.5 mg/dL
Plasma triglyceride concentration (C57BL/6JJcl mice; 10 mg/kg, 2 weeks): 30.4 ± 2.2 mg/dL
Plasma triglyceride concentration (C57BL/6JJcl mice; 10 mg/kg, 4 weeks): 21.5 ± 1.8 mg/dL
Plasma triglyceride concentration (C57BL/6JJcl mice; 10 mg/kg, 7 weeks): 22.1 ± 1.9 mg/dL
Plasma triglyceride concentration (C57BL/6JJcl mice; 30 mg/kg, 2 weeks): 23.1 ± 2.5 mg/dL
Plasma triglyceride concentration (C57BL/6JJcl mice; 30 mg/kg, 4 weeks): 11.1 ± 1.1 mg/dL
Plasma triglyceride concentration (C57BL/6JJcl mice; 30 mg/kg, 7 weeks): 16.2 ± 1.6 mg/dL
IC50 (recombinant human ACC2): 5.6 nM
SMILES: C[C@@H](COC1CCC(Oc2nc3c(F)cc(OC4CC4)cc3n2C)CC1)NC(N)=O (some centres unmarked) [Compound I-12]
long chain fatty acid metabolizing ability in myocardium (wash out rate) (Atgl knockout mice; 30 mg/kg/10 mL oral, p=0.096, Welch's t test): tended to improve
plasma triglyceride concentration versus vehicle-administered group (C57BL/6JJcl mice): lower than that in the vehicle-administered group

Remaining amount of compound, Rat [1]: 87%
Remaining amount of compound, Human [2]: 95.4%
Plasma triglyceride concentration (C57BL/6JJcl mice; 15 mg/kg, 0 weeks): 61.6 ± 3.1 mg/dL
Plasma triglyceride concentration (C57BL/6JJcl mice; 15 mg/kg, 1 week): 23.7 ± 1.0 mg/dL
Plasma triglyceride concentration (C57BL/6JJcl mice; 15 mg/kg, 3 weeks): 19.8 ± 1.2 mg/dL
Plasma triglyceride concentration (C57BL/6JJcl mice; 15 mg/kg, 5 weeks): 19.0 ± 1.7 mg/dL
Plasma triglyceride concentration (C57BL/6JJcl mice; 15 mg/kg, 7 weeks): 18.8 ± 1.2 mg/dL
Plasma triglyceride concentration (C57BL/6JJcl mice; 45 mg/kg, 0 weeks): 63.6 ± 3.7 mg/dL
Plasma triglyceride concentration (C57BL/6JJcl mice; 45 mg/kg, 1 week): 22.4 ± 2.5 mg/dL
Plasma triglyceride concentration (C57BL/6JJcl mice; 45 mg/kg, 3 weeks): 18.9 ± 1.4 mg/dL
Plasma triglyceride concentration (C57BL/6JJcl mice; 45 mg/kg, 5 weeks): 16.5 ± 1.7 mg/dL
Plasma triglyceride concentration (C57BL/6JJcl mice; 45 mg/kg, 7 weeks): 15.1 ± 1.0 mg/dL
IC50 (recombinant human ACC2): 6.6 nM
SMILES: CC(=O)N[C@@H](C)CCC1OCC(Oc2nc3c(F)c(OC4CC4)ccc3n2C)CO1 (some centres unmarked) [Compound I-13]
long-chain fatty acid metabolizing ability in myocardium (wash out rate) (Atgl knockout mice; 45 mg/kg/10 mL oral, p<0.05, Welch's t test): significant improving effect
plasma triglyceride concentration versus vehicle-administered group (C57BL/6JJcl mice): lower than that in the vehicle-administered group
